According to paper PMC9092428, “Towards identification of protein–protein interaction stabilizers via inhibitory peptide-fragment hybrids using templated fragment ligation” (RSC Chemical Biology, 2022):
Square brackets hold non-standard residues; d marks the D form. Peptide text beside a SMILES is read from it. * marks the point of attachment. 5FAM = O=C1OC2(c3ccc(O)cc3Oc3cc(O)ccc32)c2ccc(C(=O)*)cc21; pS = N[C@@H](COP(=O)(O)O)C(=O)O; Ahx = NCCCCCC(=O)O

Key:
Assay type in all cases: binding
14-3-3η [1] = biological target: T1, 14-3-3η (Homo sapiens, UniProt Q04917); assay: Fluorescence anisotropy (FA) competition assay against tracer hDMX361–374^pSer367*; details: Fig. 2b experiment; hydrazide equilibrated with 5 eq. aldehyde, serially diluted; 50 nM hDMX361–374^pSer367*, 1 μM 14-3-3η, 50 mM NH4OAc, 10 mM aniline, 1 mM DTT, pH 6.5
T1 construct: full length proteins were concentrated by centrifugation; His tag (pProEx HTb vector) (N); made in house; host or cells: E. coli BL21(DE3)
T1 sequence (Q04917 1-246): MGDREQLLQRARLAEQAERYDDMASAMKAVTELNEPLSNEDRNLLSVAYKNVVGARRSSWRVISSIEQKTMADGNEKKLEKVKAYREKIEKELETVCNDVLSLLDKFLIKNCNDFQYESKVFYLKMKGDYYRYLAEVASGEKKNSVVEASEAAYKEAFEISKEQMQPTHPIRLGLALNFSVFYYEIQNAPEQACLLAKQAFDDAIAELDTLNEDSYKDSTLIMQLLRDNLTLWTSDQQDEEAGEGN
Protocol: A fluorescence anisotropy (FA) competition assay was subsequently carried out using conditions previously found suitable for acylhydrazone formation (pH 6.5, 50 mM NH4OAc, 10 mM aniline) with added DTT (1 mM) to supress disulfide formation. hDMX361–369^pSer367Gly-hydrazide was used to compete with a tracer peptide: hDMX361–374^pSer367* for binding to 14-3-3η (Fig S2, ESI ^†). […] Initial attempts to screen in cocktails, established the aldehydes had no affect on their own (Fig. S3, ESI ^†). We then performed an assay where each aldehyde was screened individually with hDMX361–369^pSer367Gly-hydrazide. A decrease in anisotropy can be attributed to a particular hydrazone product, avoiding the additional step of product identification e.g. by HRMS, and, combines the equilibration step for hydrazone formation with 14-3-3η screening (Fig. 2a). […] To confirm the single-concentration results, a competition assay was performed (Fig. 2b). hDMX361–369^pSer367Gly-hydrazide was equilibrated with 5 equivalents of each aldehyde (product formation confirmed by LC-MS, see Fig. S4, ESI ^†), and serially diluted against the tracer peptide (hDMX361–374^pSer367*) and 14-3-3η protein.
Fig. 2 Dynamic ligation screening based on hDMX361–369^pSer367Gly-hydrazide (a) Anisotropy values of individually screened hydrazones (relative to buffer, zero activity negative control in grey), hDMX361–374^pSer367 (blue) and hDMX361–369^pSer367Gly-hydrazide (red) as positive controls with hits (hDMX361–369^pSer367Gly-hydrazone-FC45 and hDMX361–369^pSer367Gly-hydrazone-SIG17) highlighted in orange boxes (10 μM acetylated hydrazide peptide mixed with 5 eq. of aldehyde, 1 μM 14-3-3η, 50 nM hDMX361–374^pSer367*, 50 mM NH4OAc, 10 mM aniline and 1 mM DTT) (b) competition FA curves for hydrazones taken forward as hits (50 nM hDMX361–374^pSer367*, 1 μM 14-3-3η in 50 mM NH4OAc, 10 mM aniline and 1 mM DTT).
Fig. 3 Dynamic ligation screening based on hDMX361–370^pSer367Gly-hydrazide (a) anisotropy values of individually screened hydrazones (relative to buffer, zero activity negative control in grey), hDMX361–374^pSer367 (blue) and hDMX361–370^pSer367Gly-hydrazide (red) as positive controls with hits highlighted in black boxes (10 μM acetylated hydrazide peptide mixed with 5 eq. of aldehyde, 1 μM 14-3-3η, 50 nM hDMX361–374^pSer367*, 50 mM NH4OAc, 10 mM aniline and 1 mM DTT) (b) representative competition FA curves for hydrazones taken forwards as hits (50 nM hDMX361–374^pSer367*, 1 μM 14-3-3η in 50 mM NH4OAc, 10 mM aniline and 1 mM DTT). […]
(§1) Screening was performed using fluorescence anisotropy competition assay, in 50 mM NH4Ac pH 6.5 buffer containing 10 mM aniline, 1 mM DTT. […]

14-3-3η [2] = biological target: T1, 14-3-3η; assay: Dynamic ligation screen, FA competition at single concentration; details: 10 μM acetylated hydrazide peptide with 5 eq. aldehyde, 24 h room temperature, 1 μM 14-3-3η, 50 nM hDMX361–374^pSer367*, 50 mM NH4OAc, 10 mM aniline, 1 mM DTT; duplicates
Protocol: A fluorescence anisotropy (FA) competition assay was subsequently carried out using conditions previously found suitable for acylhydrazone formation (pH 6.5, 50 mM NH4OAc, 10 mM aniline) with added DTT (1 mM) to supress disulfide formation. hDMX361–369^pSer367Gly-hydrazide was used to compete with a tracer peptide: hDMX361–374^pSer367* for binding to 14-3-3η (Fig S2, ESI ^†). […] Initial attempts to screen in cocktails, established the aldehydes had no affect on their own (Fig. S3, ESI ^†). We then performed an assay where each aldehyde was screened individually with hDMX361–369^pSer367Gly-hydrazide. A decrease in anisotropy can be attributed to a particular hydrazone product, avoiding the additional step of product identification e.g. by HRMS, and, combines the equilibration step for hydrazone formation with 14-3-3η screening (Fig. 2a). […]
Figure S3. […] Aldehydes were assessed as […]
as §1
Screening was performed using 10 μM acetylated hydrazide peptide mixed with 5 eq. of aldehyde, 1 μM 14-3-3η,. […] After 24 hours, hDMX tracer peptide was added to a concentration of 50 nM to the experiment wells or equal amount of buffers was added to the blanks and the plate was read immediately. […]

14-3-3η [3] = biological target: T1, 14-3-3η; assay: FA direct titration of tracer peptide; details: tracer 50 nM, 10 mM HEPES, 150 mM NaCl, 0.1% Tween 20, 0.1% BSA, pH 7.4; triplicates; read-out: Kd (14-3-3 affinity by FA)
Protocol: To explore the effect of non-linked fragments, 5 commercially available fragments with similarity to the reduced aldehyde form of COOH4, FC50 and FC32; analogues bearing alcohol or methyl groups in place of the aldehyde (Fig. 3c) were assessed. For consistency a modified tracer peptide was used (hDMX361–370^pSer367Gly* i.e. analogous to the screening peptide but bearing FAM-Ahx). […] Stabilization of the peptide/14-3-3η interaction was observed as the anisotropy increased at the highest fragment concentration, consistent with millimolar affinities (Fig. 3c).
Figure S7. Direct titration of peptide for analysis of fragment stabilizing effects ( hDMX361- […]
(1 picture or pasted object on this page, not shown here)
Peptides were cleaved and side-chain deprotected using ‘Reagent K’ […]
Direct titration assay: All assays were performed in 384 well plates (each experiment was run in triplicates) and data were collected by Perkin Elmer EnVision 2013 plate reader with excitation at 480 nm (30 nm bandwidth), polarised dichroic mirror at 505 nm and emission at 535 nm (40 nm bandwidth, S and P polarised). […] A ½ fold dilution series was performed in the titration, with plates read after 30 min, 4 h and 20-24 h. […]
Collected data were processed in Microsoft Excel using the equations bellow. Total intensity I and anisotropy r were calculated using Equations 1 and 2 for each well. […]

Compound: CC[C@H](C)[C@H](NC(=O)[C@@H](NC(=O)[C@H](CCCNC(=N)N)NC(=O)[C@H](CCCNC(=N)N)NC(=O)[C@H](CS)NC(=O)[C@H](CC(=O)O)NC(C)=O)[C@@H](C)O)C(=O)N[C@@H](COP(=O)(O)O)C(=O)N[C@@H](C)C(=O)N1CCC[C@H]1C(=O)NCC(=O)N/N=C/c1scc(Br)c1Br [hDMX361–369^pSer367Gly-hydrazone-SIG17] (HELM PEPTIDE1{[ac].D.C.R.R.T.I.[O=C([C@H](COP(=O)(O)O)N[*:1])[*:2]].A.P.G.[Brc1csc(/C=N/N[*:1])c1Br]}$$$$V2.0)
- IC50 (14-3-3η [1]): 13.7 ± 0.5 µM
- Anisotropy of individually screened hydrazones relative to controls (hit call) (14-3-3η [2]): hits

Compound: CC[C@H](C)[C@H](NC(=O)[C@@H](NC(=O)[C@H](CCCNC(=N)N)NC(=O)[C@H](CCCNC(=N)N)NC(=O)[C@H](CS)NC(=O)[C@H](CC(=O)O)NC(=O)CCCCCNC(=O)c1ccc2c(c1)C(=O)OC21c2ccc(O)cc2Oc2cc(O)ccc21)[C@@H](C)O)C(=O)N[C@@H](COP(=O)(O)O)C(=O)N[C@@H](C)C(=O)N1CCC[C@H]1C(=O)N[C@H](C(=O)NCC(N)=O)C(C)C [hDMX361–370^pSer367Gly*] ({5FAM-Ahx}-DCRRTI[pS]APVG-NH2)
- Kd (14-3-3η [3]): 0.172 ± 0.0093 µM
